# What was measured:
# Type in all cases: in vivo, rat
# microglia [1] = experiment: Immunohistochemistry and cell counting of microglia (Iba1, Ed1/Cd68) in CMV-infected pup brain; conditions: P1, lateral ventricular area; per os to dam E0 to birth; CMV untreated 42.74%, MEM 14.28%
# Protocol: Immunohistochemistry experiments were carried out on coronal brain slices (50-100 μm, vibratome, Microm; 14 μm, cryostat, Leica) as described previously (9) with the following primary (anti-Iba1: 1/500, Wako; anti-Cd68, Ed1 clone: 1/200, Millipore) and secondary (Alexa Fluor 568 or 647-conjugated goat anti-rabbit or anti-mouse IgGs; Life Technologies) antibodies. Hoescht 33258 (1:2000, Sigma) was used for nuclei staining.
# For cell counting analyses, at least three adjacent brain sections were analyzed throughout the entire z-dimension for each sample using confocal microscopy. […] Cells were counted manually in each brain with Cell Profiler cell image analysis software (Broad Institute Cambridge, Mass., USA). For each channel of stack images, mean image intensity was measured using “MeasureImageIntensity” module and cells were identified with “IdentifyPrimaryObjects” module, in which Min and Max typical diameter of objects was set between 20 and 80 pixel units, respectively, and threshold was corrected by the mean intensity measured previously. Then, using mask images generated with the aforementioned module, colocalization between channels was evaluated with “RelateObjects” and “MaskObjects” in order to determine the number of overlapping objects. Finally, data were exported to a spreadsheet containing the number of quantified cells for each staining and of colocalizations. […]
# CMV-infected pups [2] = experiment: Postnatal survival of pups infected with CMV in utero
# Protocol: (§1) Wistar rats (Janvier Labs, France) were raised and mated at INMED Post Genomic Platform (PPGI) animal facility. Rat cytomegalovirus (rat CMV) recombinant Maastricht strain (RCMV-Δ145-147-gfp) with a green fluorescent protein (GFP) expression cassette, and its production, purification and titration, were reported previously (17). In utero icv injections were performed at E15 as previously described (9,18) in embryos from timed pregnant rats that were anaesthetized with ketamine (100 mg/kg)/xylazine (10 mg/kg). […] Microglia status was modified in the embryos in vivo with doxycycline per os given to the mother throughout pregnancy (200 mg/kg in food pellet chow, Bioserv).
# Data were expressed as means ±s.e.m. unless otherwise stated. Non-parametric Mann Whitney test (two-tailed) followed by Bonferroni correction if needed, and non-parametric Kruskall-Wallis test to detect heterogeneous distribution between groups followed by Dunn's post test for multiple comparisons. were used whenever appropriate. Univariate Cox analysis and Fisher's exact test (two-tailed) were used to compare between survival distributions and rates and parametric Student's t test was used to compare between weight gains, whereas Chi-square test with Bonferroni correction and mixed model for repeated data using PROC GLIMMIX with sas 9.4 were used for all other phenotypic comparisons between groups of animals.
# CMV-infected pups [3] = experiment: Righting reflex sensorimotor test; conditions: treated in utero vs untreated infected pups; P1-P20; p=0.025
# Protocol: as §1
# (§2) For righting reflex evaluation, rat pups were placed in a supine position, and the time required to flip to the prone position was measured. For the cliff aversion reflex, animals were placed with their forepaws overhanging the edge of a board; the time required to turn >90° away from the edge was recorded. […] Generalized tonic-clonic epileptic seizures were detected visually, usually after animal handling, especially during cage changing and behavioral testing. […] For each rat, the reference electrode was inserted beneath the pinna of the assessed ear, the positive electrode beneath the skin on the vertex of the head, the ground electrode on the animal's back. […] Impedances were monitored to be below 2000Ω. […]
# CMV-infected pups [4] = experiment: Cliff aversion reflex sensorimotor test; conditions: treated in utero vs untreated infected pups; P1-P20; p<10^-4
# Protocol: as §1, §2
# CMV-infected pups [5] = experiment: Hindlimb paralysis, determined visually
# Protocol: as §1, §2
# CMV-infected pups [6] = experiment: Generalized tonic-clonic epileptic seizures, detected visually
# Protocol: as §1, §2
# microglia [7] = experiment: Flow cytometry of brain leukocytes (CD45, CD11b/c, RT1B) for microglia status
# Protocol: as §1
# Leukocytes from brains obtained from anesthetized P1 or P7 pups were isolated as previously described (9). 1 to 3×10^6 leukocytes were incubated with Zombie NIR Fixable Viability kit (1:200; Bio legend) for 20 min at RT. Fc receptors were blocked using mouse anti-rat CD32 antibody (FcγII receptor, clone D34-485) for 10 min. at 4° C. to prevent against nonspecific binding. Cells were then stained with antibodies against combinations of cell surface markers as previously listed and described (9). An average of 1.3×10^5 living singlet cells were analyzed per brain equivalent on a BD LSRFortessa cell cytometer and raw data were analyzed using FACSDiva V8.0 software (BD Biosciences).
smiles,measurement,setting,value
C[C@H]1c2cccc(O)c2C(=O)C2=C(O)[C@]3(O)C(=O)C(C(N)=O)=C(O)[C@@H](N(C)C)[C@@H]3[C@@H](O)[C@@H]21 [doxycycline],"phagocytic activation index (PAI), ratio of Iba1+ Ed1+ cells to total Iba1+ cells",microglia [1],17.32%
same,infected pups survived at P20,"CMV-infected pups [2]; dams treated per os throughout pregnancy, untreated 29.6%",86.1%
same,lower risk to postnatal death,"CMV-infected pups [2]; first three postnatal weeks, treated in utero vs untreated CMV-infected, p=0.0006",5.1
same,"success to righting, odds ratio",CMV-infected pups [3],2.6
same,"success to cliff aversion, odds ratio",CMV-infected pups [4],9.9
same,CMV-infected pups displaying hindlimb paralysis,"CMV-infected pups [5]; first three postnatal weeks, untreated 83.3%, p=0.001",50%
same,drop in risk of hindlimb paralysis,"CMV-infected pups [5]; treated vs untreated, p=0.03",6.2 fold
same,decrease in risk of epileptic seizures,"CMV-infected pups [6]; period of evaluation, treated in utero, p<10^-4",5.9 fold
same,proportion of epileptic CMV-infected rats,"CMV-infected pups [6]; untreated 24%, p=0.12",11%
same,"proportion of reactive CD45low/int, CD11b/c+, RT1B+ microglia (fraction IV)","microglia [7]; P7, after treatment discontinuation, untreated 58.93%",55.76%
same,"proportion of MHC class II-positive reactive microglia (fraction IV: CD45low/int, CD11b/c+, RT1B+)","microglia [7]; whole brain at P1, CMV untreated 13.98%, controls 0.73%",5.66%

# — US11690856B2, “Compounds for treating CMV related diseases” (INSERM (INSTITUT NATIONAL DE LA SANTE ET DE LA RECHERCHE …, priority 2017, dated 2023)
